Read-outs that look alike come from different tables or passages of the source.
Molecular target: T1, LCK (Homo sapiens, UniProt P06239)
T1 construct: LCK KD GST (225-509); GST
Experiment: LCK-Homogeneous Time Resolved Fluorescent (HTRF) Kinase Assay
Type: biochemical
Method in brief: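 LCK phosphorylates biotinylated Gastrin peptide in the presence of ATP for 90 min in 50 mM HEPES pH 7.5, 50 mM NaCl, 20 mM MgCl, 5 mM MnCl, 2 mM DTT, 0.05% BSA. Reaction stopped with EDTA-containing detection reagent, then equilibrated 30 min before HTRF read.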

[1] = read-out: activity in the LCK-HTRF Kinase Assay

T1 sequence (P06239 225-509): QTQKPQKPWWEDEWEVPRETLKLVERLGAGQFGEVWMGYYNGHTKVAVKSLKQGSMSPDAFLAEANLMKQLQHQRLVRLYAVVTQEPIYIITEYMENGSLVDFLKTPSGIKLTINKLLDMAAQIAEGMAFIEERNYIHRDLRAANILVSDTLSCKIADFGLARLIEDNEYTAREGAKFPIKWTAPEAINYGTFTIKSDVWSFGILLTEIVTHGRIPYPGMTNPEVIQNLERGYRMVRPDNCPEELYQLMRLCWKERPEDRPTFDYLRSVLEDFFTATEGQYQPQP

IC50 [nM]	IC50 [1] [nM]	SMILES
< 1000		COc1cc(Nc2ncc3c(=O)n(-c4c(C)cccc4C)c4nc5ccccc5n4c3n2)ccc1OCCN1CCN(C)CC1 [No. 10, 6-(2,6-dimethylphenyl)-2-((3-(methyloxy)-4-((2-(4-methyl-1-piperazinyl)ethyl)oxy)phenyl)amino)-pyrimido[5′,4′:5,6]pyrimido[1,2-a]benzimidazol-5(6H)-one]
< 1000		COc1ccc(Cl)cc1-n1c(=O)c2cnc(Nc3ccc(N4CCN(C)CC4)cc3)nc2n2c3ccccc3nc12 [No. 76, 6-(5-chloro-2-(methyloxy)phenyl)-2-((4-(4-methyl-1-piperazinyl)phenyl)amino)pyrimido[5′,4′:5,6]-pyrimido[1,2-a]benzimidazol-5(6H)-one]
	< 1000	Cc1cccc(C)c1-n1c(=O)c2cnc(Nc3ccc(N4CCN(C(C)C)CC4)cc3)nc2n2c3ccccc3nc12 [No. 31, 6-(2,6-dimethylphenyl)-2-((4-(4-(1-methylethyl)-1-piperazinyl)phenyl)amino)pyrimido[5′,4′:5,6]-pyrimido[1,2-a]benzimidazol-5(6H)-one]
	< 1000	Cc1cccc(C)c1-n1c(=O)c2cnc(Nc3ccc(N4CCN(CCCN(C)C)CC4)cc3)nc2n2c3ccccc3nc12 [No. 49, 2-((4-(4-(3-(dimethylamino)propyl)-1-piperazinyl)-phenyl)amino)-6-(2,6-dimethylphenyl)-pyrimido[5′,4′:5,6]pyrimido[1,2-a]benzimidazol-5(6H)-one]
	< 1000	CN1CCN(c2ccc(Nc3ncc4c(=O)n(-c5c(F)c(F)c(F)c(F)c5F)c5nc6ccccc6n5c4n3)cc2)CC1 [No. 89, 2-((4-(4-methyl-1-piperazinyl)phenyl)amino)-6-(pentafluorophenyl)pyrimido[5′,4′:5,6]pyrimido[1,2-a]benzimidazol-5(6H)-one]
	< 1000	Cc1cccc(C)c1-n1c(=O)c2cnc(Nc3ccc(N4CCNCC4)cc3)nc2n2c3ccccc3nc12 [No. 2, 6-(2,6-dimethylphenyl)-2-((4-(1-piperazinyl)phenyl)-amino)pyrimido[5′,4′:5,6]pyrimido[1,2-a]-benzimidazol-5(6H)-one]
	< 1000	C[C@H](c1ccccc1)n1c(=O)c2cnc(Nc3ccc(N4CCN(C)CC4)cc3)nc2n2c3ccccc3nc12 [No. 68, 2-((4-(4-methyl-1-piperazinyl)phenyl)amino)-6-((1R)-1-phenylethyl)pyrimido[5′,4′:5,6]pyrimido[1,2-a]-benzimidazol-5(6H)-one]
	< 1000	Cc1cccc(C)c1-n1c(=O)c2cnc(Nc3ccc(N4CCN(C(=O)OC(C)(C)C)CC4)cc3)nc2n2c3ccccc3nc12 [No. 3, 1,1-dimethylethyl 4-(4-((6-(2,6-dimethylphenyl)-5-oxo-5,6-dihydropyrimido[5′,4′:5,6]pyrimido[1,2-a]-benzimidazol-2-yl)amino)phenyl)-1-piperazinecarboxylate]
	< 1000	Cc1cccc(C)c1-n1c(=O)c2cnc(Nc3ccc(OCCCN4CCN(C(C)C)CC4)c(F)c3)nc2n2c3ccccc3nc12 [No. 72, 6-(2,6-dimethylphenyl)-2-((3-fluoro-4-((3-(4-(1-methylethyl)-1-piperazinyl)propyl)oxy)phenyl)-amino)pyrimido[5′,4′:5,6]pyrimido[1,2-a]-benzimidazol-5(6H)-one]
	< 1000	Cc1cccc(C)c1-n1c(=O)c2cnc(Nc3ccc(C(=O)NCCN(C)C)cc3)nc2n2c3ccccc3nc12 [No. 71, N-(2-(dimethylamino)ethyl)-4-((6-(2,6-dimethylphenyl)-5-oxo-5,6-dihydropyrimido[5′,4′:5,6]pyrimido[1,2-a]-benzimidazol-2-yl)amino)benzamide]
